Each block holds one molecule with its values, some of them ahead of it.
Key:
hMC1R [1] = molecular target: T1, hMC1R (Homo sapiens, UniProt Q01726); experiment: Adenylate cyclase; assay type: cell-based; conditions: for functional class at hMC1R: class by maximal cAMP level relative to MTII; for fold drop in potency: hMC1R, Ac-NDP-γ-MSH-NH2 series, comparator implied: peptide 11
hMC4R [2] = molecular target: T2, hMC4R (Homo sapiens, UniProt P32245); experiment: Competition binding on whole HEK293 cells, 125I-[Nle4,DPhe7]-α-MSH; conditions: for hMC4R IC50 / IC50: concentration of peptide at 50% specific binding, N=4, NB: No Binding at 10^-5 M; for IC50: read-out: hMC4R IC50
T2 sequence (P32245 whole entry): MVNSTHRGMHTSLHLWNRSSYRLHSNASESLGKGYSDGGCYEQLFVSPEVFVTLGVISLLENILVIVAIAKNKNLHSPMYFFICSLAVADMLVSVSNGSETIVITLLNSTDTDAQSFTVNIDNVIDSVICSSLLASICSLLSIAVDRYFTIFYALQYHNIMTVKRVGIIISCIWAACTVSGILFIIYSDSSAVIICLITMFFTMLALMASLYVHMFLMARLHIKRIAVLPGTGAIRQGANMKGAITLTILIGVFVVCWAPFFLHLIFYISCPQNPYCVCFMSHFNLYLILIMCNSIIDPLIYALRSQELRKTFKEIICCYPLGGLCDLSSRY

hMC3R = hMC3R (Homo sapiens, UniProt P41968); experiment: as above; conditions: concentration of peptide at 50% specific binding, N=4; NB: No Binding at 10^-5 M
hMC3R, sequence (P41968 whole entry): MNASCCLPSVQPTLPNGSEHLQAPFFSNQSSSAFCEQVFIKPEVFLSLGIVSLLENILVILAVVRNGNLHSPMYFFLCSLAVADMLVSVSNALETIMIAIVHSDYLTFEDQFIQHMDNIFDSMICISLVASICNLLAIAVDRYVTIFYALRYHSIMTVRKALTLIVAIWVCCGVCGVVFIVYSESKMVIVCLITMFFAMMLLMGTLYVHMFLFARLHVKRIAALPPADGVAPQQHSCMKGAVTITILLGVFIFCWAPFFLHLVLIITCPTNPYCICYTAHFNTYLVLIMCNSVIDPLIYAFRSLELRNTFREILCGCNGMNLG

hMC4R [3] = molecular target: T2, hMC4R; experiment: Adenylate cyclase; assay type: cell-based; conditions: class by maximal cAMP level relative to MTII
hMC1R [4] = molecular target: T1, hMC1R; experiment: Competition binding on whole HEK293 cells, 125I-[Nle4,DPhe7]-α-MSH; conditions: Ac-NDP-γ-MSH-NH2 series, comparator implied: peptide 11
[5] = molecular target: human melanocortin 1 receptor (human) (UniProt Q01726)
human melanocortin 1 receptor (human), sequence (Q01726 whole entry): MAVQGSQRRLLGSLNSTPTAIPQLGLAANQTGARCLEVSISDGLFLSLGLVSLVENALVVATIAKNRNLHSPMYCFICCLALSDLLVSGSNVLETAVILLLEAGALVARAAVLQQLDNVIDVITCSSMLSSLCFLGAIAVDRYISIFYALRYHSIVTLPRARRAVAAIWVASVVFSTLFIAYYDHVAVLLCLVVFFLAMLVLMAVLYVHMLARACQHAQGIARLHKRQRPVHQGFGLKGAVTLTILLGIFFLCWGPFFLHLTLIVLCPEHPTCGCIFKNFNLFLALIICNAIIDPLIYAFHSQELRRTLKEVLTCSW

[6] = molecular target: human melanocortin 3 receptor (human) (UniProt P41968)
human melanocortin 3 receptor (human), sequence (P41968 whole entry): as the sequence (P41968 whole entry) above

[7] = molecular target: human melanocortin 1 receptor (human) (UniProt Q01726); experiment: radioligand binding
[8] = molecular target: human melanocortin 5 receptor (human) (UniProt P33032)
human melanocortin 5 receptor (human), sequence (P33032 whole entry): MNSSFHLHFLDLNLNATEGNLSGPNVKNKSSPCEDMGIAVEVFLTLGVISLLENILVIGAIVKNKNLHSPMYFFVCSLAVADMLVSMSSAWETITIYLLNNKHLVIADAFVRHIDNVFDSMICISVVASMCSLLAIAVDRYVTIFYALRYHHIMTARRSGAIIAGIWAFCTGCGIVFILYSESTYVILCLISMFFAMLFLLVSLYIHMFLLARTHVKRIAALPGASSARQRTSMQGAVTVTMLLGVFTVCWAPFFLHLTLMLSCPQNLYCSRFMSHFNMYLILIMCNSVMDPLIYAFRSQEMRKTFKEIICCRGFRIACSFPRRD

[9] = molecular target: human melanocortin 4 receptor (human) (UniProt P32245)
human melanocortin 4 receptor (human), sequence (P32245 whole entry): as the sequence (P32245 whole entry) above

hMC4R [10] = molecular target: T2, hMC4R; conditions: cited from earlier work

T1 sequence (Q01726 whole entry): as the sequence (Q01726 whole entry) above

Molecule: CCCC[C@H](NC(C)=O)C(=O)N[C@H]1CC(=O)NCCCC[C@@H](C(N)=O)NC(=O)[C@H](Cc2c[nH]c3ccccc23)NC(=O)[C@@H]2CCCN2C(=O)[C@@H](Cc2ccccc2)NC(=O)[C@H](Cc2c[nH]cn2)NC1=O [Peptide 1]
functional class at hMC1R (hMC1R [1]): partial agonist (triggers a maximal cAMP level that is 20%-80% of MTII triggered maximal cAMP response)

hMC4R IC50 (hMC4R [2]): single-digit nanomolar range | hMC3R IC50 (hMC3R): single-digit nanomolar range
Molecule: CCCC[C@H](NC(C)=O)C(=O)N[C@H]1CC(=O)NCCCC[C@@H](C(N)=O)NC(=O)[C@H](Cc2c[nH]c3ccccc23)NC(=O)[C@H](CCCNC(=N)N)NC(=O)[C@@H](Cc2ccccc2)NC(=O)[C@@H]2C[C@@H](NC(=N)N)CN2C1=O [Peptide 4]

hMC4R IC50 (hMC4R [2]): single-digit nanomolar range | hMC3R IC50 (hMC3R): single-digit nanomolar range
Molecule: CCCC[C@H](NC(C)=O)C(=O)N[C@H]1CC(=O)NCCCC[C@@H](C(N)=O)NC(=O)[C@H](Cc2c[nH]c3ccccc23)NC(=O)[C@H](CCCNC(=N)N)NC(=O)[C@@H](Cc2ccccc2)NC(=O)[C@@H]2C[C@H](NC(=N)N)CN2C1=O [Peptide 5]

Molecule: CCCC[C@H](NC(C)=O)C(=O)N[C@H]1CC(=O)NCCCC[C@@H](C(N)=O)NC(=O)[C@H](Cc2c[nH]c3ccccc23)NC(=O)[C@@H]2CCCN2C(=O)[C@@H](Cc2ccc3ccccc3c2)NC(=O)[C@H](Cc2c[nH]cn2)NC1=O [Peptide 6]
functional class at hMC1R (hMC1R [1]): partial agonist (triggers a maximal cAMP level that is 20%-80% of MTII triggered maximal cAMP response)

functional class at hMC1R (hMC1R [1]): full agonist (80%-100% level of MT II)
Molecule: CCCC[C@H](NC(C)=O)C(=O)N[C@H]1CC(=O)NCCCC[C@@H](C(N)=O)NC(=O)[C@H](Cc2c[nH]c3ccccc23)NC(=O)[C@@H]2C[C@H](NC(=N)N)CN2C(=O)[C@@H](Cc2ccc3ccccc3c2)NC(=O)[C@H](Cc2c[nH]cn2)NC1=O [Peptide 8]

binding affinity at the hMC4R, fold lower/weaker than peptide 1 (hMC4R [2]; relative to control peptide 1): 25 fold | binding affinity at the hMC4R, fold lower than peptide 6 (hMC4R [2]; relative to peptide 6): 8 fold
Molecule: CCCC[C@H](NC(=O)[C@@H](NC(=O)[C@H](Cc1ccc(O)cc1)NC(C)=O)C(C)C)C(=O)NCC(=O)N[C@@H](Cc1c[nH]cn1)C(=O)N[C@H](Cc1ccccc1)C(=O)N1CCC[C@H]1C(=O)N[C@@H](Cc1c[nH]c2ccccc12)C(=O)N[C@@H](CC(=O)O)C(=O)N[C@@H](CCCNC(=N)N)C(=O)N[C@@H](Cc1ccccc1)C(=O)NCC(N)=O [Peptide 11]
functional class at hMC4R (hMC4R [3]): partial agonist (triggers a maximal cAMP level that is 20%-80% of MTII triggered maximal cAMP response) | functional class at hMC1R (hMC1R [1]): partial agonist (triggers a maximal cAMP level that is 20%-80% of MTII triggered maximal cAMP response)

IC50 (hMC4R [2]): > 10 µM | fold drop in binding affinity (hMC1R [4]): 4-5 fold | functional class at hMC1R (hMC1R [1]): full agonist (80%-100% level of MT II) | fold drop in potency (hMC1R [1]): more than 11 fold
Molecule: CCCC[C@H](NC(=O)[C@@H](NC(=O)[C@H](Cc1ccc(O)cc1)NC(C)=O)C(C)C)C(=O)NCC(=O)N[C@@H](Cc1cnc[nH]1)C(=O)N[C@H](Cc1ccccc1)C(=O)N1C[C@H](NC(=N)N)C[C@H]1C(=O)N[C@@H](Cc1c[nH]c2ccccc12)C(=O)N[C@@H](CC(=O)O)C(=O)N[C@@H](CCCNC(=N)N)C(=O)N[C@@H](Cc1ccccc1)C(=O)NCC(N)=O [Peptide 12]

IC50 (hMC4R [2]): > 10 µM | fold drop in binding affinity (hMC1R [4]): 4-5 fold | functional class at hMC1R (hMC1R [1]): full agonist (80%-100% level of MT II) | fold drop in potency (hMC1R [1]): more than 11 fold
Molecule: CCCC[C@H](NC(=O)[C@@H](NC(=O)[C@H](Cc1ccc(O)cc1)NC(C)=O)C(C)C)C(=O)NCC(=O)N[C@@H](Cc1cnc[nH]1)C(=O)N[C@H](Cc1ccccc1)C(=O)N1C[C@@H](NC(=N)N)C[C@H]1C(=O)N[C@@H](Cc1c[nH]c2ccccc12)C(=O)N[C@@H](CC(=O)O)C(=O)N[C@@H](CCCNC(=N)N)C(=O)N[C@@H](Cc1ccccc1)C(=O)NCC(N)=O [Peptide 13]

cAMP accumulation in receptor-transfected HEK293 cells, EC50 [5]: > 1000 nM | cAMP accumulation, %max of MTII [5]: 75%
Molecule: peptide 1 (MTII with Arg8 replaced by Pro)

cAMP accumulation in receptor-transfected HEK293 cells, EC50 [6]: 130 nM | cAMP accumulation in receptor-transfected HEK293 cells, EC50 [5]: 620 nM | cAMP accumulation, %max of MTII [5]: 25%
Molecule: peptide 9 (SHU9119 with His6 replaced by 4-guanidinyl-Pro)

IC50 [7]: 1.2 nM | cAMP accumulation in receptor-transfected HEK293 cells, EC50 [8]: 85 nM | cAMP accumulation, %max of MTII [8]: 52% | cAMP accumulation, %max of MTII (EC50 cell also prints 0) [6]: 0% | cAMP accumulation in receptor-transfected HEK293 cells, EC50 [5]: 1700 nM | cAMP accumulation, %max of MTII [5]: 90% | cAMP accumulation in receptor-transfected HEK293 cells, EC50 [9]: 1400 nM
Molecule: peptide 10 (SHU9119 with His6 replaced by 4-guanidinyl-Pro)

B1: hASIP: Endogenous antagonist of the hMCRs, agouti signaling protein (protein, UniProt P42127 23-132, looked up)
Agouti-signaling protein: HLPPEEKLRDDRSLRSNSSVNLLDVPSVSIVALNKKSKQIGRKAAEKKRSSKKEASMKKVVRPRTPLSAPCVATRNSCKPPAPACCDPCASCQCRFFRSACSCRVLSLNC
selectivity hMC4R/hMC3R (hMC4R [10]): 46 fold

— article PMC2775485 (Journal of medicinal chemistry, 2009)
